Results on 1 compound are retold here after US11572590B2, “Methods for evaluating tumor cell spheroids using 3D microfluidic cell culture device” (Dana-Farber Cancer Institute, Inc., priority 2017, dated 2023).

By inhibition is commonly meant the share of the control response that was lost under treatment.

What all share (assay): SelectScreen Kinase Profiling, single point inhibition and IC50 for off-target kinases
Common to all, as to assay type: biochemical

For test [1], the target named is T1, off-target kinases (Homo sapiens, UniProt O60285).
T1 sequence (O60285 1-661): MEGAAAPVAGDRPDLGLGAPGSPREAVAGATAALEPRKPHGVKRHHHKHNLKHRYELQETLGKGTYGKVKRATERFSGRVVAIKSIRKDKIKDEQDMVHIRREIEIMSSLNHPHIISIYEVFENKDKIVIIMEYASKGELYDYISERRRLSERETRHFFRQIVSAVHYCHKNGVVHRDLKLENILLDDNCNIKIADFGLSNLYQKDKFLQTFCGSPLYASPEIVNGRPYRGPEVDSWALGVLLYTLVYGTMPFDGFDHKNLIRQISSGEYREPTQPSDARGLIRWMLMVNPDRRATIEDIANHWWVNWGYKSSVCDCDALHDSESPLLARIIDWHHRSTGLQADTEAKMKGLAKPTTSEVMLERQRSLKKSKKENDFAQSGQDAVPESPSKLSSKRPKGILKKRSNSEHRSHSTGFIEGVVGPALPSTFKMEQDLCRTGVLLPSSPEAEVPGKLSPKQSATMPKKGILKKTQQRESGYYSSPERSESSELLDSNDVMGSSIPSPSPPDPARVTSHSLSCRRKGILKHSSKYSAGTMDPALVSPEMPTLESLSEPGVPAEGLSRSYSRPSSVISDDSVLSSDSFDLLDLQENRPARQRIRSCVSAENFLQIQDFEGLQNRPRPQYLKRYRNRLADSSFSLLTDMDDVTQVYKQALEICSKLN
To be noted: NUAK1 (ARK5), ATP Km app, Adapta. The method, then: (§1) Biochemical single point inhibition and IC50 concentrations for TBK1, IKKε (IKBKE), and off-target kinases were determined at ThermoFisher Scientific using SelectScreen Kinase Profiling Services (Madison, Wis., USA) (Tables S4A and S4B-1-7). To determine cellular potency, the human colorectal cancer carcinoma cell line HCT116 (ATCC, Manassas, Va.) was maintained in T175 flasks in complete RPMI medium; RPMI 1640 supplemented with 10% FBS, 1× Penicillin-Streptomycin solution and 1×MEM (non-essential amino acids). HCT116 cells were grown to 90-95% confluency in T175 flasks containing complete RPMI medium and transfected in bulk using Lipofectamine 2000 (Invitrogen, Carlsbad, Calif.) with 70 μg of ISG54-luciferase reporter plasmid (Elim Biopharmaceuticals Inc., Hayward, Calif.). The reporter plasmid contains a luciferase gene expression cassette under the transcriptional regulation of the promoter of the human interferon stimulated gene 54 (ISG54). Transfection of the cells was allowed to take place for 6 hours, after which the cells were harvested by treatment with 0.25% trypsin EDTA (Corning Inc., Corning, N.Y.). Trypsinized cells were added to 384-well poly-d-lysine treated black clear bottom tissue culture assay plates (Greiner Bio-One GmbH, Kremsmünster, Austria) at a density of 20,000 cells/well in 80 μL of complete RPMI medium and incubated overnight. After 16-18 hours post-transfection, the assay plates were washed with PBS (Corning Inc., Corning, N.Y.), followed by addition of 80 μL/well of serum-free RPMI 1640 medium containing 1× Penicillin-Streptomycin solution, 1×MEM and 350 nL of DMSO or titrations of Compound 1. Compound 1 titrations were generated by 1.5-fold dilution steps in two overlapping serial dilution series to generate a 40-point compound dose range. After incubation at 37° C. for 1 hour, the cells were stimulated with Poly(I:C) (InvivoGen, San Diego, Calif.) at a final concentration of 15 μg/mL in Optimem media (Life Technologies, Rockville, Md.). The assay plates were incubated for 5 hours at 37° C., followed by addition of One-Glo luciferase firefly reagent (Promega, Madison, Wis.) at 1:1 volume/well and luminescence was measured in an EnVision Multilabel Plate Reader (PerkinElmer, Santa Clara, Calif.). The EC50 values were calculated from the fit of the dose-response curves to a four-parameter equation. All EC50 values represent geometric mean values of a minimum of four determinations.

In test [2] the target is off-target kinases (Homo sapiens, UniProt P05771). As to conditions: PRKCB1 (PKC beta I), ZLYTE, ATP Km app. As to the method:
as §1

In test [3] the target is off-target kinases (Homo sapiens, UniProt P41240). As to conditions: CSK, ZLYTE, ATP Km app. The method, then:
as §1

Test [4] addresses T2, off-target kinases (Homo sapiens, UniProt P54753).
T2 sequence (P54753 34-998): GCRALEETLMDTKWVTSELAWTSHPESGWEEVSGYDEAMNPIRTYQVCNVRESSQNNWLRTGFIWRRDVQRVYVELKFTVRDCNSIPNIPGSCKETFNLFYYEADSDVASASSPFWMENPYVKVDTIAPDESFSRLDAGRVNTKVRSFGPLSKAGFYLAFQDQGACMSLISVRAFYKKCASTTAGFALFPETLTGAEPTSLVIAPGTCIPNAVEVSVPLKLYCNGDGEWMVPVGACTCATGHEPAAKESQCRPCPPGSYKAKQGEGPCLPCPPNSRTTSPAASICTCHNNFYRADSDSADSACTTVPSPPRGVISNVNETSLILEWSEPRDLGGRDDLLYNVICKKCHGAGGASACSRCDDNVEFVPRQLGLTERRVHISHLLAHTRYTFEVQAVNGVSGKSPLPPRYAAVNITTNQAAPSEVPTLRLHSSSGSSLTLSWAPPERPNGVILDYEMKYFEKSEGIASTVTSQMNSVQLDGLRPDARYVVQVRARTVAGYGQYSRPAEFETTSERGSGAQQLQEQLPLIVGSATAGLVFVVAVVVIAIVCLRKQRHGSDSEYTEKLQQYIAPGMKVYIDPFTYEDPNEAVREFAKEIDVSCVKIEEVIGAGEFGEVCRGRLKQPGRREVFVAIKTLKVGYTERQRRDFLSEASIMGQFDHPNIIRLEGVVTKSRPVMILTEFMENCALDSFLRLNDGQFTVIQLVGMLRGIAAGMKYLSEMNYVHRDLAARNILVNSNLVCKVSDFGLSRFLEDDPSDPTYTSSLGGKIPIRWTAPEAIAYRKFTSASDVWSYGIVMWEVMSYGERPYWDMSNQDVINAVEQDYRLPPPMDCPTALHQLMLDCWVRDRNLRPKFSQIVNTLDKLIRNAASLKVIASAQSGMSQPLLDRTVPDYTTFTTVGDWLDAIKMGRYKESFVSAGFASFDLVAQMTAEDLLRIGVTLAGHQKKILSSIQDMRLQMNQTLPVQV
As to conditions: EPHB3, ZLYTE, ATP Km app. As to the method:
as §1

SMILES strings stand for the structures. Like-named read-outs stand apart in the source and are kept apart here.

off-target kinases (Homo sapiens, UniProt P41240), sequence (P41240 whole entry): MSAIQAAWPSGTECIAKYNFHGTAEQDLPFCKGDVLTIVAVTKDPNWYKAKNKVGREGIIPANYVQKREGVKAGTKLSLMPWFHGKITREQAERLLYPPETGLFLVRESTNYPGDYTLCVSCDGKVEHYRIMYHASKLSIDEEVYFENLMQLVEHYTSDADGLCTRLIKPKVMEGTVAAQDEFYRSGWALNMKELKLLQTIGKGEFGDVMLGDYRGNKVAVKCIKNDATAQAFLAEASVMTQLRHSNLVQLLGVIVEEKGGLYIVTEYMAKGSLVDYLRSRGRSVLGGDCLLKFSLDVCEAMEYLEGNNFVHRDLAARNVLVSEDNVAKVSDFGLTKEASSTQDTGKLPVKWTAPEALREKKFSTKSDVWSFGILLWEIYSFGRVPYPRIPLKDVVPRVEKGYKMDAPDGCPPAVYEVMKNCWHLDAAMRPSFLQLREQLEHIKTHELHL
off-target kinases (Homo sapiens, UniProt P05771), sequence (P05771 whole entry): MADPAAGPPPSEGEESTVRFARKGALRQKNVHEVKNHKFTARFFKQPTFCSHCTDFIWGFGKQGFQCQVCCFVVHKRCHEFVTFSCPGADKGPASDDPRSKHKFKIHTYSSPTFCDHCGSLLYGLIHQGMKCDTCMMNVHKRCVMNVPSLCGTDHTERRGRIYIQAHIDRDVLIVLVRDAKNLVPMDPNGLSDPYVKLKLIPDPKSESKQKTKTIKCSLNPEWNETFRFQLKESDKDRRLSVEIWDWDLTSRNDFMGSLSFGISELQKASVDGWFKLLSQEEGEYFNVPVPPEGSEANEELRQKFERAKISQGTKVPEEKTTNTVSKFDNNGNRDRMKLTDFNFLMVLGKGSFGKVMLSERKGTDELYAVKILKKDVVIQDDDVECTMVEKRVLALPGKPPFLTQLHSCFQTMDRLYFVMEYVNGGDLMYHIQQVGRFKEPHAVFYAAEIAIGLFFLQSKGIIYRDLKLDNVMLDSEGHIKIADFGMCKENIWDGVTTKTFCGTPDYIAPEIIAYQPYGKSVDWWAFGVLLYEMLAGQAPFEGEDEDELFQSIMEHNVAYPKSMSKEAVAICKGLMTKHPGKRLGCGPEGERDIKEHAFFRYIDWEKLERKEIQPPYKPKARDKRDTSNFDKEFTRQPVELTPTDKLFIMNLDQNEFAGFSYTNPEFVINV

For `N#Cc1cc(-c2ncnc(Nc3ccc(N4CCN(C5COC5)CC4)cc3)n2)ccc1OC1CCOCC1` [Compound 1, 5-(4-((4-(4-(oxetan-3-yl)piperazin-1-yl)phenyl)amino)-1,3,5-triazin-2-yl)-2-((tetrahydro-2H-pyran-4-yl)oxy)benzonitrile], the inhibition in test [1] (read-out: % Inhibition 1) was 83%; in test [1] (read-out: % Inhibition 2), 83%; in test [1] (read-out: % Inhibition Avg) it was 83%; in test [2] (read-out: % Inhibition 1), 5%; in test [2] (read-out: % Inhibition 2), 3%; in test [2] (read-out: % Inhibition Avg), 4%. Besides, the inhibition turned out to be 13% in test [3] (read-out: % Inhibition 1); 10% in test [3] (read-out: % Inhibition 2); 12% in test [3] (read-out: % Inhibition Avg); 3% in test [4] (read-out: % Inhibition 1); 3% in test [4] (read-out: % Inhibition 2); 3% in test [4] (read-out: % Inhibition Avg).
